Reference: patent publication US20070003536A1, “Topical skin compositions, their preparation, and their use” (priority 2000, published 2007)

Tests used:
[1] = molecular target: T1, MMP-1 (interstitial collagenase) (Homo sapiens, UniProt P03956); assay: MMP-1 activity kit (Amersham); type: biochemical; details: samples diluted to 100 mg/ml using PBS; FIG. 5
T1 construct: purchased Amersham
T1 sequence (P03956 100-469): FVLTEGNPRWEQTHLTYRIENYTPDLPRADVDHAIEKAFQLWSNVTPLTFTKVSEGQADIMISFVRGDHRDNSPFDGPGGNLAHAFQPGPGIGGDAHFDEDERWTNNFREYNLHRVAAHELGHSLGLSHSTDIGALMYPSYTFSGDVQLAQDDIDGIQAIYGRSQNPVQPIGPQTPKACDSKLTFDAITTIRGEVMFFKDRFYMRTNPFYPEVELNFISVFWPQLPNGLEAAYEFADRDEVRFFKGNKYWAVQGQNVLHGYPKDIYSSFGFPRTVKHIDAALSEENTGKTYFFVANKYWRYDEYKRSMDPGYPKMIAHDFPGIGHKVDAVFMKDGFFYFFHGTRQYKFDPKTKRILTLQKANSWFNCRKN
From the text: FIG. 5 is a graph showing the effect of samples on MMP-1 activity. The data are expressed as % control MMP-1 activity. The horizontal line denotes 100% activity.
The matrix metalloproteinases (MMP) are a group of zinc dependent enzymes, which degrade varying components of the extracellular matrix in both normal and diseased tissue. MMP-1 (interstitial collagenase) is thought to initiate the cleavage of fibrillar collagen while MMP-9 (gelatinase) digests the denatured collagen fragments generated by MMP-1. The products of MMP-9 digestion are then free to be incorporated into new collagen fibrils. Elastase breaks down elastin. The expression of these enzymes is under strict control and changes as individuals age or are exposed to UV irradiation. Because MMP-1 is involved in initiation of collagen breakdown, it would be advantageous for skin care products to inhibit MMP-1 activity. […] Finally, elastase should be inhibited as to prevent digestion of elastin and the […] of the skin.
Commercially available kits were used for testing the effect of the samples on the activity of the MMPs of interest. For MMP-1, a kit from Amersham was used according to the manufacturer's specifications. For MMP-9 and Elastase, kits from Molecular Probes were used. The samples were prepared in the solvent noted in table I at stock concentrations of 100 mg/ml. […]

RAW 264.7 cells = assay: NO production by LPS stimulated RAW 264.7 cells (Griess reagent); type: cell-based, Murine; details: for inhibitory effect on nitrite accumulation in culture supernatants: LPS stimulated RAW cells, in words; for Nitrite produced: LPS 100 ng/ml, LPS control 901.7
Description: FIG. 8 is a graph showing the effect of samples on NO production by RAW 264.7 cells. Data are expressed as % NO produced compared to the LPS stimulated positive control. L6=Lipochroman-6, NT=Nutriene tocotrienols, TQS=γ-Tocopherylquinone S, VC=Viapure Citrus, SZ=Soybean Zymbiosome, and NPR=NAB Pikea robusta.
Cells in skin can produce nitric oxide (NO) when exposed to UV light, and NO thus produced has the potential to induce age associated changes in skin. This study was performed in order to screen a panel of cosmetics and skin care raw materials for their effect on NO production by RAW 264.7 cells.
Murine RAW 264.7 cells were seeded in a 96 well plate at 1×10^5 cells /well. The plate was incubated overnight. The following day, the cells were treated with the samples at 0.001, 0.01, and 0.1% for 2 hours. The samples are listed below in Table II. Following the exposure period, LPS was added to the wells at 100 ng/ml. The plate was incubated overnight. Equal volumes of culture supernatant and Griess reagent were incubated for 15 min at room temperature and the absorbance at 540 nm was read. The amount of nitrite in the samples was calculated from a standard curve generated with sodium nitrite.

[2] = system: Human dermal fibroblasts (Hs-27); assay: Hyaluronic acid secretion by fibroblasts, energy booster samples with co-stimuli, Example 4; type: cell-based; details: Media line: stimulus alone, no energy booster (Centella asiatica, vitamin C 0.001%; Biodynes EMPP 0.1%); media control 1112
Description: (§1) Four new samples that boost cellular energy were tested for their ability to augment extracellular matrix component production in response to Centella and Biodynes. Human dermal fibroblasts were used as these cells actively synthesize extracellular matrix components. In addition to measuring procollagen and elastin levels, hyaluronic acid levels were also measured. Hyaluronic acid is a member of the glycosaminoglycan family of compounds. Glycosaminoglycans make up the ground substance of connective tissue, and along with elastin, help provide elasticity to skin. They also hold water and therefore provide viscosity and hydrating properties.
Samples were diluted in media. Centella asiatica and vitamin C were prepared at 0.001%. Biodynes EMPP was prepared at 0.1%. Centella asiatica was prepared as an extract in DMSO:ethanol:water at 50:30:20. The “energy booster” samples, Seanergilium algae extract, Thiotaine, Sepitonic, and Phytovityl corn kernel extract, were all prepared in media at 0.01, 0.1, and 1.0%. Human dermal fibroblasts (Hs-27) were plated in 24 well plates and were incubated overnight. […]
Data are expressed as ng hyaluronic acid/ml culture supernatant. The amount of hyaluronic acid in each supernatant was calculated from a standard curve generated using a hyaluronic acid standard supplied with the ELISA kit.

[3] = system: Human dermal fibroblasts (Hs-27); assay: Procollagen secretion by fibroblasts, energy booster samples with co-stimuli, Example 4; type: cell-based; details: Media line: stimulus alone, no energy booster (Centella asiatica, vitamin C 0.001%; Biodynes EMPP 0.1%); media control 1533
Description: as §1
(§2) Samples were diluted in media. Centella asiatica and vitamin C were prepared at 0.001%. Biodynes EMPP was prepared at 0.1%. Centella asiatica was prepared as an extract in DMSO:ethanol:water at 50:30:20. The “energy booster” samples, Seanergilium algae extract, Thiotaine, Sepitonic, and Phytovityl corn kernel extract, were all prepared in media at 0.01, 0.1, and 1.0%. Human dermal fibroblasts (Hs-27) were plated in 24 well plates and were incubated overnight. The cells were treated with the samples at the concentrations indicated for 2 consecutive days. […]

[4] = system: Human dermal fibroblasts (Hs-27); assay: Elastin secretion by fibroblasts, energy booster samples with co-stimuli, Example 4; type: cell-based; details: Media line: stimulus alone, no energy booster (Centella asiatica, vitamin C 0.001%; Biodynes EMPP 0.1%)
Description: as §1, §2

With COC1=C(OC)C(=O)C(C/C=C(\C)CC/C=C(\C)CC/C=C(\C)CC/C=C(\C)CC/C=C(\C)CC/C=C(\C)CC/C=C(\C)CC/C=C(\C)CC/C=C(\C)CCC=C(C)C)=C(C)C1=O [CoQ10, 2,3,-dimethoxy-5-methyl-6-decaprenyl-benzoquinone] the “effect on MMP-1 activity” value [1] was “most potent activators”.
For COc1cc2c(cc1O)CCC(C)(C)O2 [Lipochroman-6], the “inhibitory effect on nitrite accumulation in culture supernatants” value (“inhibitory effect” for short) (RAW 264.7 cells) was “most potent”, the “inhibitory effect” value (RAW 264.7 cells; listed as L6) was “more inhibitory activity than do mixed tocopherols” and the Nitrite produced (RAW 264.7 cells; dose 0.001%) was 1006.5 ng/mL. It also gave a Nitrite produced (RAW 264.7 cells; dose 0.01%) of 750.7 ng/mL and a Nitrite produced (RAW 264.7 cells; dose 0.1%) of 336.7 ng/mL.
In the case of O=C1O[C@H]([C@@H](O)CO)C(O)=C1O [Vitamin C, ascorbic acid], the hyaluronic acid secretion [2] is reported as 633 ng hyaluronic acid/ml culture supernatant, the procollagen secretion [3] is reported as 1744 ng/mL and the “elastin secretion, % media control elastin” value [4] is reported as 148%.
CC1=C(C)C(=O)C(CC[C@](C)(O)CCC[C@H](C)CCC[C@H](C)CCCC(C)C)=CC1=O [g-Tocopherylquinone S] was tested, and the “inhibitory effect” value (RAW 264.7 cells) was “most potent”, the Nitrite produced (RAW 264.7 cells; dose 0.001%) was 754.2 ng/mL and the Nitrite produced (RAW 264.7 cells; dose 0.01%) was 830.3 ng/mL. The Nitrite produced (RAW 264.7 cells; dose 0.1%) was 217.9 ng/mL.
